Test results taken from patent publication US6420131B1, “Use of fluorescein aryl ethers in high throughput cytochrome P450 inhibition assays” (Gentest Corporation, priority 1999, dated 2002).

Legend:
[1] = test system: panel of Human P450 enzymes; assay: Specificity of dealkylation of CMFDE and MF by a panel of human P450 enzymes; assay type: biochemical; conditions: CYP1A1 and CYP2C19; 1 uM substrate
[2] = biological target: T1, human CYP3A4 (Homo sapiens, UniProt P08684); assay: High throughput cytochrome P450 inhibition screen, CYP3A4; conditions: Absolute Mean IC50 Values
[3] = biological target: T1, human CYP3A4; conditions: for Range: human
[4] = biological target: T2, Rat CYP2D2 (Rattus norvegicus, UniProt P10634); assay: Turnover of fluorometric substrates by rat CYP2D2
T2 sequence (P10634 1-500): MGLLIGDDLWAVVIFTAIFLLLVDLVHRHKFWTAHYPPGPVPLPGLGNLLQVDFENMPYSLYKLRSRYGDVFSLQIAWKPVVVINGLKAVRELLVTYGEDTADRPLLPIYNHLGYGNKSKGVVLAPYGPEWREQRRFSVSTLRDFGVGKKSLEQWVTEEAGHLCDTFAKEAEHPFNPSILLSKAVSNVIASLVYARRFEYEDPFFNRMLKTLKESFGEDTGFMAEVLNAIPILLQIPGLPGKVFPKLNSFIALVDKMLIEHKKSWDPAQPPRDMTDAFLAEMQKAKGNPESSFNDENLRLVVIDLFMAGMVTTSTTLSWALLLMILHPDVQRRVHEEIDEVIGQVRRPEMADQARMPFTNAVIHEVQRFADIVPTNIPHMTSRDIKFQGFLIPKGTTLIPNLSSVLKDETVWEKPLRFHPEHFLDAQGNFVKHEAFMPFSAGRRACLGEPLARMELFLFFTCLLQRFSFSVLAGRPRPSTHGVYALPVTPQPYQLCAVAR

[5] = biological target: T3, Rat CYP1A1 (Rattus norvegicus, UniProt P00185); assay: Turnover of fluorometric substrates by rat CYP1A1; conditions: substrate uM: Ia 2, AMMC 20, CEC 40, MFC 50, BFC 50, BQ 40, BzRes 50; 30 min; enzyme 50 nM (2.5 nM for CEC)
T3 sequence (P00185 1-524): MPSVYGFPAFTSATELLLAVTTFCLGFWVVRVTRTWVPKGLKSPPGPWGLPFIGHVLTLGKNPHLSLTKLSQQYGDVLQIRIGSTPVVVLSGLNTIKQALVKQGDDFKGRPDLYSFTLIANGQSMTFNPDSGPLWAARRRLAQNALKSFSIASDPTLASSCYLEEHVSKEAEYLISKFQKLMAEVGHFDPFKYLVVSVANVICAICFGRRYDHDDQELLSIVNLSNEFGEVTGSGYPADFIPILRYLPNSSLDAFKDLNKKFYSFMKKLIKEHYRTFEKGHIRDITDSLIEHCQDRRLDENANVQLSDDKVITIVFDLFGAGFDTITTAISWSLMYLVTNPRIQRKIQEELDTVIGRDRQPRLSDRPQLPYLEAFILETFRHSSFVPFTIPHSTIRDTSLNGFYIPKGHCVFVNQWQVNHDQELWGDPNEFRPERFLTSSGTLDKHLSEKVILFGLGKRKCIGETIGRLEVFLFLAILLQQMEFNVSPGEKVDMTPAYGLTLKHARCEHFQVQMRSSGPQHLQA

[6] = biological target: T4, CYP2C8 (Homo sapiens, UniProt P10632); assay: High throughput cytochrome P450 inhibition screen, CYP2C8, compound Ia as substrate
T4 sequence (P10632 1-490): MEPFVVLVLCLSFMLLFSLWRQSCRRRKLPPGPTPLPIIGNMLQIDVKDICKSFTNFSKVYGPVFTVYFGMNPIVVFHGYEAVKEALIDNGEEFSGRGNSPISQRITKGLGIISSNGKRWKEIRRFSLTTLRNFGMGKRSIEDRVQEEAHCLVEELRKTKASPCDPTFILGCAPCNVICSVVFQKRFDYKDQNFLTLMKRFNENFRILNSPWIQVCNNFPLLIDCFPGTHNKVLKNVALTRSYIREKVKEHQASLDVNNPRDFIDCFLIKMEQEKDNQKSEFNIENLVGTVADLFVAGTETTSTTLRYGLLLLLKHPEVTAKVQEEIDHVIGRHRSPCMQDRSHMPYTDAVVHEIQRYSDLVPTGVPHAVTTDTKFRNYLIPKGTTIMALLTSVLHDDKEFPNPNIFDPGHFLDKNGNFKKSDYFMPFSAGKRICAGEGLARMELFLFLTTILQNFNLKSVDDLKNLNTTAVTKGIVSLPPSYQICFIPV

[7] = test system: panel of Human P450 enzymes; assay: Substrate specificity, dealkylation of Compounds Ia and Ib by a panel of human P450 enzymes; assay type: biochemical; conditions: various P450s
Procedure: The specificity of several cytochrome P450 enzymes for the dealkylation of Compound Ia (FIG. 1) and Compound Ib (FIG. 2) was examined.
Example Compounds Ia and Ib. […] Final incubation volume was 0.2 ml.

[8] = biological target: T4, CYP2C8
[9] = substrate: O=C(OCc1ccccc1)c1ccccc1-c1c2ccc(=O)cc-2oc2cc(OCc3ccccc3)ccc12; assay: Enzyme kinetics of substrate turnover by cDNA-expressed CYP2C8; assay type: biochemical, human; conditions: other: CYP2C8
Procedure: The evaluation of compounds of Formula I were performed by measuring the kinetics of turnover using cDNA-expressed cytochromes P450 CYP3A4 and CYP2C8. Vmax and Km values are important for the optimization of the assay conditions and for setting the parameters for inhibition experiments.
Example Compound Ia. […] Final incubation volume was 0.2 ml. […] The activity was quantitated by comparing to a standard curve of fluorescein. Apparent Km and Vmax values were calculated by non-linear regression using SigmaPlot software.

T1 sequence (P08684 whole entry): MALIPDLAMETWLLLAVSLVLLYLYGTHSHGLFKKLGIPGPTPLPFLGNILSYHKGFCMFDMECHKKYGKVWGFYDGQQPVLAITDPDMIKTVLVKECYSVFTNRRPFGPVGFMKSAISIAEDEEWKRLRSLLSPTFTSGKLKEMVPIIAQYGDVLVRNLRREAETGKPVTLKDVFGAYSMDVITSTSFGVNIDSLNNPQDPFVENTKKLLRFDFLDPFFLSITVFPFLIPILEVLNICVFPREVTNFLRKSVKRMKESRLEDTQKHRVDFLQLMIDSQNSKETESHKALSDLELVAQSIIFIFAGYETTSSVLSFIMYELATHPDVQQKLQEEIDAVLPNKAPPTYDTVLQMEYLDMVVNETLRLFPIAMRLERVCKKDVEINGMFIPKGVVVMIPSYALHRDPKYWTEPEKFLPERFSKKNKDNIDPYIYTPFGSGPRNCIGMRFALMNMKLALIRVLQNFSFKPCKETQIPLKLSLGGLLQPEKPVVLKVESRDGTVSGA

Molecule: COc1ccc2c(c1)Oc1cc(O)ccc1C21OC(=O)c2ccccc21 (centres unmarked) [MF, 3-O-methylfluorescein]
- substrate quality based on turnover number [1]: good P450 substrate

Molecule: CC[C@H]1OC(=O)[C@H](C)[C@@H](O[C@H]2C[C@@](C)(OC)[C@@H](O)[C@H](C)O2)[C@H](C)[C@@H](O[C@@H]2O[C@H](C)C[C@H](N(C)C)[C@H]2O)[C@](C)(O)C[C@@H](C)C(=O)[C@H](C)[C@@H](O)[C@]1(C)O [Erythromycin]
- IC50 ([2]; BFC, substrate BFC): 4.5 µM
- IC50 ([2]; BQ, substrate BQ): 54.4 µM
- IC50 ([2]; BzRes, substrate BzRes): 1.8 µM
- IC50 ([2]; Overall, mean over the substrates BzRes, BQ, BFC, Ia): 21.5 µM

Molecule: NC(=O)N1c2ccccc2C=Cc2ccccc21 [Carbamazepine]
- Range [3]: 5.3

Molecule: CC(=O)[C@H]1CC[C@H]2[C@@H]3CCC4=CC(=O)CC[C@]4(C)[C@H]3CC[C@]12C [Progesterone]
- Absolute Mean IC50 Values, BFC [3]: Activation
- Absolute Mean IC50 Values, BzRes [3]: Activation
- IC50 ([2]; BQ, substrate BQ): > 200 µM
- IC50 ([2]; Ia, substrate compound Ia): 11.5 µM

Molecule: CC[N+](C)(CC)CCc1c(C)c2ccc(OC)cc2oc1=O [AMMC, 3-[2-(N,N-Diethyl-N-methylamino)ethyl]-7-methoxy-4-methylcoumarin]
- substrate utilization ([4]; CYP2D2/AMMC, conditions of Table VI): 45%
- Turnover Numbers, CYP2D2 ([4]; substrate uM: Ia 2, AMMC 20, CEC 40, MFC 50, BFC 50, BQ 40, BzRes 50, 30 min, enzyme 50 nM): 5.9 pmol product/min/pmol enzyme
- Turnover Numbers, CYP1A1 [5]: —^b

Molecule: CC(=O)O[C@H]1C(=O)[C@@]2(C)[C@H]([C@H](OC(=O)c3ccccc3)[C@]3(O)C[C@H](OC(=O)[C@H](O)[C@@H](NC(=O)c4ccccc4)c4ccccc4)C(C)=C1C3(C)C)[C@]1(OC(C)=O)CO[C@@H]1C[C@@H]2O [paclitaxel]
- inhibition of the turnover of compound Ia [6]: inhibited the turnover of compound Ia

Molecule: O=C(O)c1ccccc1-c1c2ccc(=O)cc-2oc2cc(OCc3ccccc3)ccc12 [Compound Ib, Monobenzyl Fluorescein]
- signal as a substrate [7]: substantially less signal versus Compound Ia

Molecule: Nc1ccc(S(=O)(=O)Nc2ccnn2-c2ccccc2)cc1 [sulfaphenazole]
- IC50 [8]: elevated

Molecule: Cc1ncc2n1-c1ccc(Cl)cc1C(c1ccccc1F)=NC2 [Midazolam]
- Range [3]: 48

Molecule: Clc1ccc(COC(Cn2ccnc2)c2ccc(Cl)cc2Cl)c(Cl)c1 (centres unmarked) [Miconazole]
- Range [3]: 11

Molecule: Clc1ccccc1C(c1ccccc1)(c1ccccc1)n1ccnc1 [Clotrimazole]
- Range [3]: 7.9

Molecule: C#C[C@]1(O)CC[C@H]2[C@@H]3CCc4cc(O)ccc4[C@H]3CC[C@@]21C [Ethynylestradiol]
- Range [3]: 4.5

Molecule: COCC(=O)O[C@]1(CCN(C)CCCc2nc3ccccc3[nH]2)CCc2cc(F)ccc2[C@@H]1C(C)C [Mibefradil]
- Range [3]: 12

B1: CYP2C8 (Homo sapiens) (protein)
chain: MEPFVVLVLCLSFMLLFSLWRQSCRRRKLPPGPTPLPIIGNMLQIDVKDICKSFTNFSKVYGPVFTVYFGMNPIVVFHGYEAVKEALIDNGEEFSGRGNSPISQRITKGLGIISSNGKRWKEIRRFSLTTLRNFGMGKRSIEDRVQEEAHCLVEELRKTKASPCDPTFILGCAPCNVICSVVFQKRFDYKDQNFLTLMKRFNENFRILNSPWIQVCNNFPLLIDCFPGTHNKVLKNVALTRSYIREKVKEHQASLDVNNPRDFIDCFLIKMEQEKDNQKSEFNIENLVGTVADLFVAGTETTSTTLRYGLLLLLKHPEVTAKVQEEIDHVIGRHRSPCMQDRSHMPYTDAVVHEIQRYSDLVPTGVPHAVTTDTKFRNYLIPKGTTIMALLTSVLHDDKEFPNPNIFDPGHFLDKNGNFKKSDYFMPFSAGKRICAGEGLARMELFLFLTTILQNFNLKSVDDLKNLNTTAVTKGIVSLPPSYQICFIPV
notes: purchased GENTEST Corporation; host or cells: baculovirus/insect cells (microsomes, SUPERSOMES)
- Km [9]: 1.4 µM
- kcat [9]: 0.00367 s⁻¹
